{"source": "paper PMC10721329", "about": "“Quisinostat is a brain-penetrant radiosensitizer in glioblastoma” (JCI Insight, 2023)", "key": {"[1]": {"assay": "Total QST levels in plasma and flank tumors (LC-MS/MS)", "assay_type": "in vivo", "conditions": "athymic nude, mouse, 10 mg/kg", "experimental": "QST concentrations in specimens were measured using reverse-phase LC on the AB SCIEX QTRAP6500+ LC-MS/MS system by operating electrospray in the positive ion mode. For liquid chromatographic separation, gradient elution was performed using a Phenomenex Kinetex F5 100 Å column (100 × 2.1 mm, 2.6 μm). The initial composition of the mobile phase was 70% phase A (0.1% formic acid in water) and 30% phase B (0.1% formic acid in 1:1 acetonitrile/methanol) with a 0.35 mL/min flow rate. Gradient elution was achieved as follows: mobile phase (B) was maintained at 30% from 0 to 0.3 minutes, increased to 95% from 0.3 to 0.8 minutes, maintained at 95% from 0.8 to 2.5 minutes, and decreased to 30% from 2.5 to 2.8 minutes. The total run time was 3.5 minutes. The internal standard used in this study was D8-infigratinib. The retention times for QST and D8-infigratinib were 1.6 and 1.8 minutes, respectively. Mass-to-charge ratio transitions were as follows: 395.20 → 144.00 (QST) and 568.08 → 321.00 (D8-infigratinib). LC-MS/MS analysis was performed using an Analyst 1.7 Chromatographic Data System. See Supplemental Methods for detailed PK experiments. […]\ntreated with 2 Gy of ionizing radiation on MWF for a total 6 Gy (3 doses). Ionizing radiation was administered with the RS2000 series biological research irradiator (Rad Source Technologies).\nTreatment of Flank-Implanted Mice with QST and/or Radiation\nImplanted flank tumors were allowed to grow until the tumor size reached 100 mm3 volume. Mice were randomized into groups before treatment and underwent treatment on MWF for the entire duration of the experiment until the tumor volumes exceeded 2000 mm3. Treatment groups included vehicle (50% PEG-300), QST alone (10 mg/kg), flank IR treatment with vehicle (2 Gy), and flank IR treatment (2 Gy) with QST (10 mg/kg). For mice receiving IR treatment with or without QST, mice were treated with 2 Gy on MWF for a total 6 Gy during the first week of treatment. QST was administered to mice through intraperitoneal injections 2 hours before flank tumor radiation treatment. Upon completion of the radiation regimen, IR-treated mice subsequently received QST or vehicle alone for the rest of the experiment. Tumor growth and treatment response were monitored by manually measuring the tumor area twice per week starting at 13 days after implantation. Upon reaching the tumor volume threshold (2000 mm3), mice were sacrificed, and plasma and tissue samples were harvested for PD and PK analyses 2 hours after treatment with a final dose of QST (10 mg/kg). […]\nCalibration Standards and Quality Control Samples\nStock solutions of standard (1 mM QST) and IS (250 µM D8-infigratinib) were prepared in acetonitrile. Working solutions for calibration curve standards and quality controls (QCs) were prepared by dilutions with a 40% methanol mixture aqueous solution. The IS precipitation solution (10 nM) was prepared from the IS stock solutions by dilution with methanol. Calibration standards and batch qualifying QCs were freshly spiked for every batch. For sample analysis in human and mouse matrices, calibration standards were prepared in bulk by spiking appropriate amounts of working solutions into blank human plasma, used as a surrogate matrix due to the instability of QST in mouse plasma. For sample analysis in neural stem cell media and cell lysate, calibration standards were prepared in bulk by spiking appropriate amounts of working solutions into neural stem cell media. QC samples were prepared in bulk by spiking appropriate amounts of working solutions into blank mouse plasma or cell media. Preparation of calibration standards and QC samples was performed at 4 °C. Final concentrations range of the calibration standards were 1–1000 nM in human plasma or neural stem cell media. Three QC levels (low, medium, and high) were used during all sample analyses. The concentrations of QC samples in various matrices were 3 nM (low QC), 22 nM (medium QC), and 800 nM (high QC). All stock […]"}, "[2]": {"test_system": "7 patient-derived GSC lines and U87", "assay": "Dose-titration cell viability assay, whole panel", "assay_type": "cell-based", "conditions": "Homo sapiens; 7 GSC lines and U87; 3-5 days; read-out: cellular IC50 in all lines", "experimental": "QST (JNJ-26481585) is a second-generation hydroxamic acid harboring remarkable selectivity toward class I HDACs, with a biochemical IC50 of 0.1 nM for HDAC1 ([13]). […] To determine the cytotoxic effects of QST, we performed a dose-titration cell viability assay in 7 patient-derived GSC lines (BT145, GB187, GB239, GB282, GB71, GB82, and GB126) and 1 long-term serum-grown human GBM cell line (U87). Because GBMs display a high degree of intratumoral heterogeneity, we used GSCs derived from both primary and recurrent GBMs that harbored distinct genetic mutations or aberrations, growth rates, MGMT promoter methylation status, and gene expression profiles (Supplemental Figure 1; supplemental material available online with this article; https://doi.org/10.1172/jci.insight.167081DS1). Cell lines were treated with various concentrations of QST (10–1000 nM), and cell viability was measured 3–5 days later (Figure 1, A and B). […]\nGSCs were seeded in laminin-coated tissue culture–treated 96-well plates (clear bottom, white plate; Corning) at a density of 1000–5000 cells per well (cell line dependent) in GSC media. […] Following treatment with QST, cells were grown for 3 to 5 days (cell line dependent), and cell viability was measured and quantified. […]"}}, "note": "Where two headings read alike, the source gives them in different places.", "data": [{"smiles": "Cn1cc(CNCC2CCN(c3ncc(C(=O)NO)cn3)CC2)c2ccccc21", "note": "[QST, quisinostat]", "values": [{"measurement": "concentration at 2 h", "setting": "[1]; flank tumor, intraperitoneal, Combination (QST+IR) cohort, read-out: [QST] total, flank tumor, Mean", "result": 501, "unit": "nM"}, {"measurement": "concentration at 2 h", "setting": "[1]; flank tumor, intraperitoneal, QST monotherapy cohort, read-out: [QST] total, flank tumor, Mean", "result": 479, "unit": "nM"}, {"measurement": "concentration at 2 h", "setting": "[1]; flank tumor, ip, QST- and combination-treated mice, 10 mg/kg IP, 2 hours after final dose, read-out: mean total QST concentration in flank tumors", "result": "~433", "unit": "nM"}, {"measurement": "concentration at 2 h", "setting": "[1]; plasma, intraperitoneal, Combination (QST+IR) cohort, read-out: [QST] total, plasma, Mean", "result": 276, "unit": "nM"}, {"measurement": "concentration at 2 h", "setting": "[1]; plasma, intraperitoneal, QST monotherapy cohort, read-out: [QST] total, plasma, Mean", "result": 250, "unit": "nM"}, {"measurement": "concentration at 2 h", "setting": "[1]; plasma, ip, QST- and combination-treated mice, 10 mg/kg IP, 2 hours after final dose, read-out: mean total QST concentration in plasma", "result": "~300", "unit": "nM"}, {"measurement": "IC50", "setting": "[2]", "result": "50 to 100", "unit": "nM"}]}]}
